Assay results taken from US20150168416A1, “KITS FOR DETECTING AND MONITORING ENDOCRINE DISRUPTING CHEMICALS (EDCs)” (THE UNITED STATES OF AMERICA, as represented by the …, priority 2012, published 2015).
“Also recorded” adds a separate entry of the source.

How the values were obtained:
Type in all cases: cell-based
[1] = target: T1, GFP-AR (Homo sapiens, UniProt P10275); assay: GFP-AR cytoplasm-to-nucleus translocation assay (3108 cells); conditions: hormones 100 nM or known concentrations, water samples 100× unless specified, 30 min
T1 construct: expressed in transfected cells; host or cells: 3108 cells (derivative of the 3134 mouse mammary adenocarcinoma line), tetracycline-repressible promoter
Method: (§1) Prior to imaging, cells were grown overnight on 22-mm^2 coverslips in DMEM medium containing 10% charcoal stripped serum (Hyclone, Logan, Utah) without tetracycline (to allow the expression of the GFP-GR or GFP-AR, respectively) at a density of 2×10^5 per 6-well plate. For the automated experiments conducted in 96 or 384 well plates, cell density was 10, 000 or 2,500 cells per well, respectively. Cells were treated with vehicle control, hormones (100 nM) or water samples for 30 min at 37° C. at a final concentration of 100×for water samples (unless otherwise specified). Additional negative controls contained samples that tested the activity of the POCIS membranes themselves.
(§2) Upon treatment, cells were fixed with 4% paraformaldehyde in PBS for 15 minutes and washed three times with PBS. Cells on the 22-mm^2 coverslips were mounted in […]® mounting media with DAPI (Vector Laboratories, Inc.) and examined on a Leica DMRA microscope with Leica 100× 1.3-N.A. oil immersion objective. Images were acquired in green (GFP-GR and GFP-AR) and UV (DAPI) channel with SenSys (Photometrics) camera with KAF1400 chip configured to collect 0.067-μm-diameter pixels. For the automated experiments conducted in 96 or 384 well plates, cells were stained with DRAQ5 (BioStatus Limited) at a dilution of 1:5000 for 15 minutes and after three final washes with PBS were imaged either immediately on the Perkin Elmer Opera Image Screening System or kept in PBS at 4° C. for later imaging.
(§3) A Perkin Elmer Opera Image Screening System was used for fully automated collection of fluorescence images of cells. This system employed a 40×water immersion objective lens, laser illuminated Nipkow disk, and cooled CCD cameras to digitally capture high resolution confocal fluorescence micrographs (300 nm pixel size with 2×2 camera pixel binning). […] The algorithm also measured the mean GFP-GR or GFP-AR intensity in both compartments, and translocation was calculated as a ratio of these intensities. […]

[2] = target: T2, GFP-GR (Rattus norvegicus, UniProt P06536, C656G/D98G); assay: GFP-GR cytoplasm-to-nucleus translocation assay (3617 cells); conditions: hormones 100 nM or known concentrations, water samples 100× unless specified, 30 min
T2 construct: expressed in transfected cells; host or cells: 3617 cells (derivative of the 3134 mouse mammary adenocarcinoma line), tetracycline-repressible promoter
Method: as §1, §2, §3

[3] = target: T3, eGFP-ratMR (Rattus norvegicus, UniProt P22199, A771G/D487G); assay: eGFP-ratMR translocation in mammalian cells
T3 construct: expressed in transfected cells
Description: (§4) Using molecular cloning methods essentially similar to those employed in Example 1, the following additional traceable fusion proteins have been constructed: an aryl hydrocarbon (e.g., dioxin) sensitive fusion protein, pRevTRE-GFP-mAhR (SEQ ID NOs: 9/10); a mineralocorticoid (e.g., aldosterone) sensitive fusion protein, eGFP-ratMR (SEQ ID NOs: 11/12); and a progestin-sensitive fusion protein, eGFP-hPRB (SEQ ID NOs: 13/14).

[4] = target: T4, pRevTRE-GFP-mAhR (Mus musculus, UniProt P30561); assay: pRevTRE-GFP-mAhR translocation in mammalian cells
T4 construct: expressed in transfected cells
Description: as §4

[5] = target: T5, GFP-PR-B (eGFP-hPRB) (Homo sapiens, UniProt P06401); assay: GFP-PR-B translocation in clonal cell lines; conditions: clones 8122, 8124, 8127, 8130 (four of five tested)
T5 construct: Five mammalian clonal lines expressing the same traceable fusion protein, GFP-PR-B (eGFP-hPRB); expressed in transfected cells
Description: Five mammalian clonal lines expressing the same traceable fusion protein, GFP-PR-B (eGFP-hPRB; SEQ ID NO: 14) were contacted with the indicated levels of progesterone, then assayed essentially as in Example 1 for translocation of the fusion protein into the nucleus from the cytoplasm.

## C[C@@]12CCC[C@H]1[C@@H]1CC(=O)C3=CC(=O)CC[C@]3(C)[C@H]1CC2 [Androst-4-en-3,6-dione]
[1]
  GFP-AR nuclear translocation: induced GFP-tagged androgen receptor (GFP-AR) translocation
[1]; listed as androst-4-en-3,6-dione
  GFP-AR nuclear translocation: translocated to the nucleus in concentration-dependent manner; also recorded: induces concentration-dependent translocation
[1]; listed as androst-4-ene-3,6-dione
  GFP-AR nuclear translocation: GFP-AR nuclear translocation
[2]
  GFP-GR nuclear translocation: did not induce GFP-GR translocation

## C[C@]12CCC(=O)C=C1CC[C@@H]1[C@@H]2[C@@H](O)C[C@]2(C=O)[C@@H](C(=O)CO)CC[C@@H]12 [aldosterone]
[3]
  eGFP-ratMR translocation: exhibited the expected translocation

## CCNc1nc(Cl)nc(NC(C)C)n1 [atrazine]
[2]
  GFP-GR nuclear translocation: did not induce GFP-GR translocation

## C[C@]12C[C@H](O)[C@H]3[C@@H](CCC4=CC(=O)CC[C@@]43C)[C@@H]1CC[C@@H]2C(=O)CO [corticosterone]
[2]
  GFP-GR nuclear translocation: translocates to the nucleus in a concentration-dependent manner; also recorded: GFP-GR translocation

## C1=COC=CO1 [dioxin]
[4]
  pRevTRE-GFP-mAhR translocation: exhibited the expected translocation

## CC(=O)[C@H]1CC[C@H]2[C@@H]3CCC4=CC(=O)CC[C@]4(C)[C@H]3CC[C@]12C [progesterone]
[5]
  GFP-PR-B translocation: exhibited the expected translocation; also recorded: positive for translocation
